Experimental data from patent US12398107B2, “Fungicidal nitroanilino substituted pyrazoles” (FMC Corporation, priority 2018, dated 2025).

What was measured:
Assay type in all cases: in vivo
[1] = tested on: Botrytis cinerea; test: Test E: tomato Botrytis, preventive spray on tomato seedlings; details: 50 ppm, 100 = 100% disease control, 0 = no control
Source text: (§1) General protocol for preparing test suspensions for Tests A-F: the test compounds were first dissolved in acetone in an amount equal to 3% of the final volume and then suspended at the desired concentration (in ppm) in acetone and purified water (50/50 mix by volume) containing 250 ppm of the surfactant PEG400 (polyhydric alcohol esters). The resulting test suspensions were then used in Tests A-F. The test suspension was sprayed to the point of run-off on tomato seedlings. The following day the seedlings were inoculated with a spore suspension of Botrytis cinerea (the causal agent of tomato Botrytis) and incubated in a saturated atmosphere at 20° C. for 48 h, and then moved to a growth chamber at 24° C. for 3 days, after which time visual disease ratings were made. A rating of 100 indicates 100% disease control and a rating of 0 indicates no disease control (relative to the controls). A dash (-) indicates the compound was not tested.

[2] = tested on: Phakopsora pachyrhizi; test: Test D: Asian soybean rust, preventive spray on soybean seedlings; details: 50 ppm, 100 = 100% disease control, 0 = no control
Source text: General protocol for preparing test suspensions for Tests A-F: the test compounds were first dissolved in acetone in an amount equal to 3% of the final volume and then suspended at the desired concentration (in ppm) in acetone and purified water (50/50 mix by volume) containing 250 ppm of the surfactant PEG400 (polyhydric alcohol esters). The resulting test suspensions were then used in Tests A-F.
The test solution was sprayed to the point of run-off on soybean seedlings. The following day the seedlings were inoculated with a spore suspension of Phakopsora pachyrhizi (the causal agent of Asian soybean rust) and incubated in a saturated atmosphere at 22° C. for 24 h and then moved to a growth chamber at 22° C. for 8 days, after which time visual disease ratings were made.
A rating of 100 indicates 100% disease control and a rating of 0 indicates no disease control (relative to the controls). A dash (-) indicates the compound was not tested.

[3] = tested on: Alternaria solani; test: Test F: tomato early blight, preventive spray on tomato seedlings; details: 50 ppm, 100 = 100% disease control, 0 = no control
Source text: as §1, with “Alternaria solani” for “Botrytis cinerea”, “early blight)” for “Botrytis)”, “27°” for “20°”, “20°” for “24°”

[4] = tested on: Blumeria graminis f. sp. tritici; test: Test C: wheat powdery mildew, preventive spray on wheat seedlings; details: 50 ppm, rated after 8 days, 100 = 100% disease control, 0 = no control
Source text: as §1, with “on wheat” for “on tomato”, “spore dust” for “spore suspension”, “of Blumeria graminis f. sp. tritici, (also known as Erysiphe graminis f. sp. tritici, the” for “of Botrytis cinerea (the”, “of wheat powdery mildew)” for “of tomato Botrytis)”, “a growth chamber” for “a saturated atmosphere”, “for 8” for “for 48 h, and then moved to a growth chamber at 24° C. for 3”

[5] = tested on: Septoria tritici; test: Test A: wheat leaf blotch, preventive spray on wheat seedlings; details: 50 ppm, 100 = 100% disease control, 0 = no control relative to controls
Source text: (§2) General protocol for preparing test suspensions for Tests A-F: the test compounds were first dissolved in acetone in an amount equal to 3% of the final volume and then suspended at the desired concentration (in ppm) in acetone and purified water (50/50 mix by volume) containing 250 ppm of the surfactant PEG400 (polyhydric alcohol esters). The resulting test suspensions were then used in Tests A-F. The test solution was sprayed to the point of run-off on wheat seedlings. The following day the seedlings were inoculated with a spore suspension of Septoria tritici (the causal agent of wheat leaf blotch) and incubated in a saturated atmosphere at 24° C. for 48 h, and then moved to a growth chamber at 20° C. for 17 days, after which time disease ratings were made. A rating of 100 indicates 100% disease control and a rating of 0 indicates no disease control (relative to the controls). A dash (-) indicates the compound was not tested.

[6] = tested on: Puccinia recondita f. sp. tritici; test: Test B: wheat leaf rust, preventive spray on wheat seedlings; details: 50 ppm, 100 = 100% disease control, 0 = no control relative to controls
Source text: as §2, with “Puccinia recondita f. sp.” for “Septoria”, “rust)” for “blotch)”, “20°” for “24°”, “24” for “48”, “7” for “17”

Compound: Cc1ccc(Nc2c(-c3ccc(F)cc3Br)c(C)nn2C)c([N+](=O)[O-])c1 [Compound 90]
- Test E disease control rating (tomato Botrytis) [1]: 99%
- Test D disease control rating (Asian soybean rust) [2]: 0%
- Test F disease control rating (tomato early blight) [3]: 9%
- Test C disease control rating (wheat powdery mildew) [4]: 87%
- Test A disease control rating (wheat leaf blotch) [5]: 100%
- Test B disease control rating (wheat leaf rust) [6]: 95%

Compound: Cc1nn(C)c(Nc2cc(F)c(F)cc2[N+](=O)[O-])c1-c1ccc(F)cc1Cl [Compound 32]
- Test E disease control rating (tomato Botrytis) [1]: 99%
- Test D disease control rating (Asian soybean rust) [2]: 98%
- Test F disease control rating (tomato early blight) [3]: 0%
- Test C disease control rating (wheat powdery mildew) [4]: 56%
- Test A disease control rating (wheat leaf blotch) [5]: 93%
- Test B disease control rating (wheat leaf rust) [6]: 85%

Compound: Cc1nn(C)c(Nc2ccc(F)cc2[N+](=O)[O-])c1-c1c(Cl)cccc1Cl [Compound 54]
- Test E disease control rating (tomato Botrytis) [1]: 21%
- Test D disease control rating (Asian soybean rust) [2]: 0%
- Test F disease control rating (tomato early blight) [3]: 0%
- Test C disease control rating (wheat powdery mildew) [4]: 93%
- Test A disease control rating (wheat leaf blotch) [5]: 100%
- Test B disease control rating (wheat leaf rust) [6]: 91%

Compound: Cc1nn(C)c(Nc2c(Cl)cc(Br)cc2[N+](=O)[O-])c1-c1ccc(F)cc1Cl [Compound 8]
- Test E disease control rating (tomato Botrytis) [1]: 99%
- Test D disease control rating (Asian soybean rust) [2]: 73%
- Test F disease control rating (tomato early blight) [3]: 73%
- Test C disease control rating (wheat powdery mildew) [4]: 92%
- Test A disease control rating (wheat leaf blotch) [5]: 99%
- Test B disease control rating (wheat leaf rust) [6]: 99%

Compound: CCc1ccc(Nc2c(-c3ccc(F)cc3Cl)c(C)nn2C)c([N+](=O)[O-])c1 [Compound 6]
- Test E disease control rating (tomato Botrytis) [1]: 55%
- Test D disease control rating (Asian soybean rust) [2]: 0%
- Test F disease control rating (tomato early blight) [3]: 0%
- Test C disease control rating (wheat powdery mildew) [4]: 27%
- Test B disease control rating (wheat leaf rust) [6]: 74%

Compound: COc1ccc(Nc2c(-c3c(F)cccc3F)c(C)nn2C)c([N+](=O)[O-])c1 [Compound 87]
- Test E disease control rating (tomato Botrytis) [1]: 98%
- Test D disease control rating (Asian soybean rust) [2]: 0%
- Test F disease control rating (tomato early blight) [3]: 93%
- Test C disease control rating (wheat powdery mildew) [4]: 98%
- Test B disease control rating (wheat leaf rust) [6]: 99%

Compound: COc1ccc(Nc2c(-c3c(F)cc(F)cc3Cl)c(C)nn2C)c([N+](=O)[O-])c1 [Compound 89]
- Test E disease control rating (tomato Botrytis) [1]: 99%
- Test D disease control rating (Asian soybean rust) [2]: 80%
- Test F disease control rating (tomato early blight) [3]: 99%
- Test C disease control rating (wheat powdery mildew) [4]: 99%
- Test B disease control rating (wheat leaf rust) [6]: 100%

Compound: COCc1ccc(Nc2c(-c3ccc(F)cc3Cl)c(C)nn2C)c([N+](=O)[O-])c1 [Compound 4]
- Test E disease control rating (tomato Botrytis) [1]: 74%
- Test D disease control rating (Asian soybean rust) [2]: 0%
- Test F disease control rating (tomato early blight) [3]: 0%
- Test C disease control rating (wheat powdery mildew) [4]: 76%
- Test B disease control rating (wheat leaf rust) [6]: 86%

Compound: COc1ccc(Nc2c(-c3ccc(F)cc3F)c(C)nn2C)c([N+](=O)[O-])c1 [Compound 88]
- Test E disease control rating (tomato Botrytis) [1]: 99%
- Test D disease control rating (Asian soybean rust) [2]: 0%
- Test F disease control rating (tomato early blight) [3]: 9%
- Test C disease control rating (wheat powdery mildew) [4]: 84%
- Test B disease control rating (wheat leaf rust) [6]: 97%

Compound: Cc1ccc(Nc2c(-c3ccc(F)cc3F)c(C)nn2C)c([N+](=O)[O-])c1 [Compound 107]
- Test E disease control rating (tomato Botrytis) [1]: 98%
- Test D disease control rating (Asian soybean rust) [2]: 0%
- Test F disease control rating (tomato early blight) [3]: 0%
- Test C disease control rating (wheat powdery mildew) [4]: 61%
- Test B disease control rating (wheat leaf rust) [6]: 91%

Compound: Cc1ccc(Nc2c(-c3c(F)cc(F)cc3Cl)c(C)nn2C)c([N+](=O)[O-])c1 [Compound 106]
- Test E disease control rating (tomato Botrytis) [1]: 99%
- Test D disease control rating (Asian soybean rust) [2]: 0%
- Test F disease control rating (tomato early blight) [3]: 68%
- Test C disease control rating (wheat powdery mildew) [4]: 98%
- Test B disease control rating (wheat leaf rust) [6]: 100%
